Peptide text beside a SMILES is read from it. * marks the point of attachment. Cbz = O=C(OCc1ccccc1)*
What was measured:
[1] = test system: ERα; experiment: LATS1-induced ERα degradation in LATS1 overexpressing cells (immunoblot); assay type: cell-based, human
Description: Cell lines and in vitro experiments SUM159PT human breast cancer cells were from Asterand and propagated as recommended. All the other cell lines were from, and were cultured according to the protocol of ATCC. MCF10A cells were maintained as previously described (Bentires-Alj et al., 2006). For most experiments, MCF10A, SUM159 and MDA 436 cells were cultured in M5 medium and the medium was refreshed or replaced every 3 days. Antibody blocking experiments were performed by adding anti-AREG (R&D, MAB262, 0.5-10 μg/ml) or a mouse IgG antibody (R&D, 10 or 2.5 μg/ml) to the medium prior to seeding of the cells or transferring the conditioned medium. Cell viability was measured using the Cell Proliferation Reagent WST-1 (Roche). Colony formation assays were performed by seeding 500-1000 cells/well in 6-well plates. Cells were allowed to adhere overnight before treatment with inhibitors or solvent as indicated. Colonies were stained after 6-10 days with 0.2% crystal violet in PBS/4% formalin. Colony area was quantified using the Odyssey scanner and software (LICOR) or Image-J (Fiji 64 bit). For sphere formation assays, 4000 (passage 1) or 1000 (subsequent passages) MCF10A cells/ml were grown in ultra-low attachment (ULA) dishes (Corning) for 5-7 days. […]

[2] = biological target: T1, ERα (Homo sapiens, UniProt P03372); experiment: ERα degradation in luminal breast cancer cells lacking LATS; assay type: cell-based; conditions: cancer cells lacking LATS grown as xenograft
T1 sequence (P03372 1-595): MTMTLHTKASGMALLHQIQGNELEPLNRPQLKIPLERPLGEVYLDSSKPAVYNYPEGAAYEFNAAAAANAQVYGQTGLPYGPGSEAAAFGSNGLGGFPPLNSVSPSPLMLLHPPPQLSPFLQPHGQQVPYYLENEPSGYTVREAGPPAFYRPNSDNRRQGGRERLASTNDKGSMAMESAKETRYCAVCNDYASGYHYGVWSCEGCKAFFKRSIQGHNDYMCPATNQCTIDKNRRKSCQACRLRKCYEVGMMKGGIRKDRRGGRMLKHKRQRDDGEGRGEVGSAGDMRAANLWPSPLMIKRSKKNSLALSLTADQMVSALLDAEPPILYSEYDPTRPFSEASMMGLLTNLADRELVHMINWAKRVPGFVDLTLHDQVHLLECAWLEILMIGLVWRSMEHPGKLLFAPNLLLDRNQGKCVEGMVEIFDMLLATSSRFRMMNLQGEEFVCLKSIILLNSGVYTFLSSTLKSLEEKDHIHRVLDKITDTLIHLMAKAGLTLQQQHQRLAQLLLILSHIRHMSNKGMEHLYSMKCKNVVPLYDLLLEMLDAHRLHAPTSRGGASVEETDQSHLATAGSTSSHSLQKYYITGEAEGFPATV
Description: Immunoblotting and immunoprecipitation Cells for immunoblotting and ELISA were lysed with RIPA buffer (50 mM Tris-HCl pH 8, 150 mM NACl, 1% NP-40, 0.5% sodium deoxycholate, 0.1% SDS), supplemented with 1× protease inhibitor cocktail (Complete Mini, Roche), 0.2 mMol/L sodium orthovanadate, 20 mM sodium fluoride and 1 mM phenylmethylsulfonyl fluoride. […]

[3] = test system: SUM159 and MDA 436; experiment: Colony formation of triple-negative breast cancer lines with or without LATS; assay type: cell-based, human; conditions: SUM159 and MDA 436 in M5 medium
Source text: (§1) Lentiviral vectors, lentivirus production and infection For LATS knockdown, the following TRC pLKO clones (Sigma) were used: LATS_1=NM_004690.x-2666s1c1, LATS_2=NM_004690.x-3614s1c1, LATS_3=NM_014572.x-2894s1c1 and the MISSION® Non-Target shRNA Control Vector SHC002. For the competition experiment, GFP and ERα expressing lentiviral vectors were cloned as described in (Duss, BCR, 2007). Lentiviruses were produced by PEI transfection of 293 T cells as described (Britschgi et al., 2012; Duss et al., 2014). The titer of each lentiviral batch was determined on PHBECs or MCF10A cells. Cell lines were infected o/n in the presence of hexamethrine bromide (8 μg/mL). Infections were performed at a multiplicity of infection of 5-20 viral particles per cell. Selection with 1.25-1.5 μg/ml puromycin was applied 48 h after infection.
(§2) Cell lines and in vitro experiments SUM159PT human breast cancer cells were from Asterand and propagated as recommended. All the other cell lines were from, and were cultured according to the protocol of ATCC. MCF10A cells were maintained as previously described (Bentires-Alj et al., 2006). […] Cell viability was measured using the Cell Proliferation Reagent WST-1 (Roche). […] Colony area was quantified using the Odyssey scanner and software (LICOR) or Image-J (Fiji 64 bit). […]

[4] = test system: T47D; experiment: Orthotopic xenograft tumor growth of ER-positive breast cancer cells lacking LATS; assay type: in vivo, mouse; conditions: cancer cells lacking LATS grown as xenograft, intraperitoneal
Description: Animal experiments SCID/beige and SCID/NOD (Jackson Labs) were used in compliance with the Swiss laws for animal welfare and animal protocols were approved by the Swiss Cantonal Veterinary Office of Basel. For orthotopic engraftment of breast cancer cell lines, 2×10^6 T47D or 1×10^6 SUM159 cells were suspended in a 100 μl mixture of Basement Membrane Matrix Phenol Red-free (BD Biosciences) and PBS 1:1 and injected into the mouse mammary gland 4. For the estrogen-dependent T47D cell line, mice received estrogen-containing drinking water 2 days prior to injection. Tumor-bearing mice were randomized based on tumor volume prior to the initiation of treatment, which started when average tumor volume was at least 100 mm^3. Fulvestrant and Tamoxifen hydrate dissolved in sunflower seed oil (all from Sigma) were injected intraperitoneally as indicated. Tumors were measured every 3 to 4 days with vernier calipers, and tumor volumes were calculated by the formula 0.5×(larger diameter)×(smaller diameter)^2.
Compounds and formulations Fulvestrant, 4-Hydroxytamoxifen (4-OHT), Tamoxifen (OHT), Cycloheximide and MG132 were from Sigma. Fulvestrant and MG-132 were prepared as 10 mMol/L stock solution in DMSO, 4-OHT and Cycloheximide as 10 mMol/L in ethanol and all stock solutions were stored at −20° C. […]

[5] = test system: T47D and MCF7 cells; experiment: Cell viability (WST-1) of ER-positive breast cancer cells after downregulation of LATS; assay type: cell-based, human; conditions: LATS downregulated vs control
Source text: as §1, §2

[6] = test system: SUM159 shLATS xenografts; experiment: Orthotopic SUM159 shNT / shLATS xenograft tumor growth; assay type: in vivo, mouse; conditions: tumor-bearing mice, tamoxifen citrate 3 mg/kg, intraperitoneal, n=5, **P<0.01 vs shNT
Description: Animal experiments SCID/beige and SCID/NOD (Jackson Labs) were used in compliance with the Swiss laws for animal welfare and animal protocols were approved by the Swiss Cantonal Veterinary Office of Basel. For orthotopic engraftment of breast cancer cell lines, 2×10^6 T47D or 1×10^6 SUM159 cells were suspended in a 100 μl mixture of Basement Membrane Matrix Phenol Red-free (BD Biosciences) and PBS 1:1 and injected into the mouse mammary gland 4. […] Tumor-bearing mice were randomized based on tumor volume prior to the initiation of treatment, which started when average tumor volume was at least 100 mm^3. Fulvestrant and Tamoxifen hydrate dissolved in sunflower seed oil (all from Sigma) were injected intraperitoneally as indicated. Tumors were measured every 3 to 4 days with vernier calipers, and tumor volumes were calculated by the formula 0.5×(larger diameter)×(smaller diameter)^2.
For in vivo studies, fulvestrant and tamoxifen were dissolved in sunflower seed oil (Sigma) and injected intraperitoneal as indicated.

Compound	LATS1-induced degradation of ERα [1]	degradation of ERα [2]	colony formation in cells lacking LATS compared to controls [3]	reduction of tumor growth [4]	effect of LATS downregulation on sensitivity / viability of treated cells [5]	tumor growth of SUM159 shLATS xenografts [6]	tumor growth of SUM159 shLATS xenografts ([6]; listed as tamoxifen citrate)
CC(C)C[C@@H](C=O)NC(=O)[C@H](CC(C)C)NC(=O)[C@H](CC(C)C)NC(=O)OCc1ccccc1 [MG132] (Cbz-Leu-Leu-Leu-aldehyde)	prevented	–	–	–	–	–	–
C[C@]12CC[C@@H]3c4ccc(O)cc4C[C@@H](CCCCCCCCC[S+]([O-])CCCC(F)(F)C(F)(F)F)[C@H]3[C@@H]1CC[C@@H]2O (stereo partly drawn) [fulvestrant, Fulvestrant]	–	failed to degrade ERα	no effect	failed	reduced sensitivity	–	–
CC/C(=C(\c1ccccc1)c1ccc(OCCN(C)C)cc1)c1ccccc1 [tamoxifen, Tamoxifen]	–	–	reduced colony formation	–	no effect	stopped growing	susceptible

Source: US20170298360A1, “LATS AND BREAST CANCER” (FRIEDRICH MIESCHER INSTITUTE FOR BIOMEDICAL RESEARCH, priority 2014, published 2017)
